In paper PMC11184554, “Nature-Inspired Gallinamides Are Potent Antischistosomal Agents: Inhibition of the Cathepsin B1 Protease Target and Binding Mode Analysis” (ACS Infectious Diseases, 2024):
“And” between values parts separate entries of the source, which are not always exact repeats. Equal entries are not always repeated.

How the values were obtained:
[1] = test system: recombinant SmCB1; experiment: Kinetic inhibition assay with recombinant SmCB1 (k2nd); assay type: biochemical, S. mansoni; settings: for decrease in inhibitory potency vs gallinamide A: ratio of k2nd values; for SmCB1 inhibition k2nd: second-order rate constant (kinact/Ki), substrate Cbz–Phe–Arg–AMC, pH 5.5, 37 °C, mean ± SE
Procedure: Gallinamide A and a series of its 18 derivatives were evaluated in vitro as inhibitors of SmCB1 to explore the binding specificities of the subsites in the enzyme’s active site. The gallinamide A inhibitor scaffold can be defined by positions P4 through P1′ (Schechter and Berger nomenclature[37]), which were assigned according to the binding mode analysis (see the crystallographic section below). The substituents R4, R1, and R1′ introduced on the scaffold (Table 2) are numbered according to the respective positions P4, P1, and P1′. The compounds’ second-order rate constants (k2nd) were determined using a kinetic inhibition assay with recombinant SmCB1 and the substrate, Cbz–Phe–Arg–AMC.
Inhibition measurements were performed in duplicate in 96-well microplates (100 μL assay volume) at 37 °C. SmCB1 (40 pM) was added to a mixture of the fluorogenic substrate Cbz–Phe–Arg–AMC (25 μM) and an inhibitor (0–100 μM) in 0.1 M sodium acetate, pH 5.5, containing 2.5 mM dithiothreitol and 0.01% (w/v) BRIJ 35. Substrate hydrolysis was monitored in an Infinite M1000 microplate reader (Tecan) at excitation and emission wavelengths of 360 and 465 nm, respectively, for up to 150 min. An observed first-order rate constant, kobs, was calculated at each inhibitor concentration by fitting the progress curve to the equation P = vi/kobs(1 – exp(−kobst)) + d where P is the product formation, t is the reaction time, vi is the initial velocity, and d is the offset. […] The second-order rate constant, k2nd, (and SE value) was determined by fitting the linear equation kobs = (k2nd[I])/(1 + [S]/Km), where [S] is the substrate concentration, [I] is the inhibitor concentration, and KM is the Michaelis–Menten constant. The KM value determined for SmCB1 was 25 μM. […] To determine IC50 values, SmCB1 (40 pM) was preincubated with the inhibitor (0–100 μM) for 30 min under assay conditions as described above, followed by the addition of the fluorogenic substrate Cbz–Phe–Arg–AMC (20 μM). Substrate hydrolysis was monitored for 30 min in a microplate reader as described above. The IC50 values were determined by nonlinear regression using GraFit software (Erithacus Software).

[2] = test system: S. mansoni newly transformed schistosomula (NTS); experiment: Phenotypic screen with newly transformed schistosomula (NTS); assay type: cell-based
Procedure: The same 19 gallinamides were screened for bioactivity against S. mansoni newly transformed schistosomula (NTS), the postinvasive parasite stage that feeds on host blood.[40] In this primary assay, the NTS were exposed to 1 and 10 μM compounds for 3 days, and the resulting phenotypic responses were graded from 0 through 4, i.e., the least to the most severe (Table 2 and Table S1). […] The effects were more pronounced after 72 h, and when the higher, 10 μM, compound concentration was used (Table S1). […] Also, compared to gallinamide A and its analogs, 3 has an additional N-terminal N-acetamide modification that further reduces bioactivity (Table 2).
Phenotypic screens employed S. mansoni newly transformed schistosomula (NTS) and adults and were carried out as described previously.[18]−[20],[42] NTS were prepared by mechanically transforming infective larvae (cercariae).[40],[42] NTS (200–300 parasites) were incubated in flat-bottomed 96-well plates in 200 μL of Basch Medium 169 containing 5% (v/v) FBS, 100 U mL^–1 penicillin and 100 μg mL^–1 streptomycin (complete Basch medium)[75] at 5% CO2 and 37 °C.[76],[77] Inhibitors were added at final concentrations of 1 and 10 μM, and changes in phenotypes were observed under an inverted microscope every 24 h for up to 72 h.
A constrained nomenclature of “descriptors”[39],[42] was used to record the multiple and dynamic changes in movement, shape, and translucence that the schistosome parasite is capable of (Table S1 for NTS and Table S3 for adults). These descriptors were then converted into an ordinal “severity score” system ranging from 0 (no effect) to 4 (maximum effect), which allows for the relative comparison of compound effects.

[3] = 1 μM compound, 24 h, scale 0 (no effect) to 4 (most severe)
[4] = 1 μM compound, 48 h, scale 0 to 4
[5] = 1 μM compound, 72 h, scale 0 to 4
[6] = 10 µM compound, 24 h, scale 0 to 4
[7] = 10 µM compound, 48 h, scale 0 to 4
[8] = 10 µM compound, 72 h, scale 0 to 4

SMILES	decrease in inhibitory potency vs gallinamide A [1] [fold]	SmCB1 inhibition k2nd [1]	SmCB1 inhibition k2nd ([1]; listed as Cpd.1) [M^–1·s^–1]	schistosomula phenotype descriptors ([2]; 1 µM compound, 24 h)	schistosomula severity score [2, 3]	schistosomula severity score [2, 4]	schistosomula severity score [2, 5]	schistosomula severity score [2, 6]	schistosomula severity score [2, 7]	schistosomula severity score [2, 8]	SmCB1 inhibition k2nd ([1]; listed as Cpd.6) [M^–1·s^–1]	schistosomula phenotype descriptors ([2]; 1 µM compound, 48 h)	schistosomula phenotype descriptors ([2]; 10 µM compound, 24 h)	SmCB1 inhibition k2nd ([1]; listed as Gallinamide A) [M^–1·s^–1]
CCC(C)C(C(=O)OC(CC(C)C)C(=O)NC(CC(C)C)C(=O)NC(C)C=CC(=O)N1C(=O)C=C(OC)C1CC(C)C)N(C)C (stereo not drawn) [compound 1]	2	3394 ± 133 M^–1·s^–1	3394	R, unc	2	4	4	4	4	4	–	–	–	–
COC1=CC(=O)N(C(=O)/C=C/[C@H](C)NC(=O)[C@H](CC(C)C)NC(=O)[C@H](CC(C)C)OC(=O)[C@H](Cc2ccccc2)N(C)C)[C@H]1Cc1ccccc1 [compound 6]	3.4	1930 ± 304 M^–1·s^–1	–	R, unc	2	4	4	4	4	4	1930	–	–	–
CCC(C)C(C(=O)OC(CC(C)C)C(=O)NC(CC(C)C)C(=O)NC(C)C=CC(=O)N1C(=O)C=C(OC)C1Cc1ccccc1)N(C)C (stereo not drawn) [compound 9]	8.4	793 ± 75 M^–1·s^–1	–	–	1	2	4	3	4	4	–	Dark, R	Dark, R, S	–
CC[C@H](C)[C@@H](C(=O)O[C@@H](CC(C)C)C(=O)N[C@@H](CC(C)C)C(=O)N[C@@H](C)/C=C/C(=O)N1C(=O)C=C(OC)[C@@H]1C)N(C)C [gallinamide A]	–	6644 M^–1·s^–1 and 6644 ± 532 M^–1·s^–1	–	–	1	2	4	4	4	4	–	Dark, R	–	6644
